Data reported in KR20160066169A, “이카리시드 b2를 유효성분으로 함유하는 백모 방지용 및 백반증 개선용 조성물” ((주)아모레퍼시픽, priority 2014, dated 2016).
Like-named read-outs stand apart in the source and are kept apart here.

Key:
Type in all cases: cell-based
[1] = test system: melanocytes (melan-a) [멜라닌 세포(melan-a)]; assay: 멜라닌 생성 촉진 효과 시험 (melanin production promoting effect, absorbance at 405 nm); details: 3 days
MITF = assay: 멜라노사이트에서의 MITF 발현 촉진 효과 (western blot, 501mel); details: for activity at 100 µM / activity at 50 ppm: IBMX 100 μM, icariside B2 50 ppm, negative control (DMSO 0.1%) = 100, read-out: MITF expression relative to negative control
[2] = test system: tyrosinase [티로시나제(tyrosinase)]; assay: 멜라노사이트에서의 티로시나제 발현 촉진 효과 (western blot, 501mel); details: for activity at 100 µM / activity at 50 ppm: IBMX 100 μM, icariside B2 50 ppm, negative control (DMSO 0.1%) = 100, read-out: tyrosinase expression relative to negative control

CC(C)Cn1c(=O)n(C)c(=O)c2[nH]cnc21 [IBMX, 3-isobutyl-1-methylxanthine, reference compound]
activity at 100 µM ([1]; 72 h, IBMX 100 μM, 37℃, negative control (0.1% DMSO) = 100, read-out: ratio of melanin quantity to negative control): 116%
activity at 100 µM (MITF; 24 h): 121%
activity at 100 µM (MITF; 48 h): 98%
activity at 100 µM (MITF; 72 h): 224%
activity at 100 µM ([2]; 24 h): 160%
activity at 100 µM ([2]; 48 h): 149%
activity at 100 µM ([2]; 72 h): 298%

CC(=O)C=CC12OC1(C)CC(OC1OC(CO)C(O)C(O)C1O)CC2(C)C (stereo not shown) [이카리시드 B2, icariside B2]
melanin production promoting effect compared with positive control (result in words) ([1]; 100 ppm vs IBMX 100 μM): 양성대조군보다 높은 멜라닌 생성 촉진 효과
activity at 50 ppm ([1]; 72 h, 50 ppm, 37℃, negative control (0.1% DMSO) = 100, read-out: ratio of melanin quantity to negative control): 103%
activity at 100 ppm ([1]; 72 h, 100 ppm, 37℃, negative control (0.1% DMSO) = 100, read-out: ratio of melanin quantity to negative control): 127%
melanin production (result in words) [1]: 멜라닌 생성이 늘어났으며
MITF protein expression (result in words) (MITF; 50 ppm, 24-72 h): 단백질 발현을 상승시킴
activity at 50 ppm (MITF; 24 h): 85%
activity at 50 ppm (MITF; 48 h): 107%
activity at 50 ppm (MITF; 72 h): 115%
tyrosinase protein expression (result in words) ([2]; 50 ppm, 24-72 h): 단백질 발현을 상승시킴
activity at 50 ppm ([2]; 24 h): 126%
activity at 50 ppm ([2]; 48 h): 132%
activity at 50 ppm ([2]; 72 h): 180%
